Data reported in article PMC11211329, “Phage-encoded bismuth bicycles enable instant access to targeted bioactive peptides” (Communications Chemistry, 2024).

Test system: naïve three-cysteine phage library
Assay: Plaque-forming assay, effect of bicyclisation reagent on phage infectivity
Assay type: cell-based, M13 bacteriophage
Conditions: 120 μM, 5 min exposure
Procedure: bismuth(III). The reaction mixture was vortexed briefly once more and incubated at room […]
Modification with bismuth tripotassium dicitrate (gastrodenol)
Bismuth tripotassium dicitrate (gastrodenol) in ultrapure sterile water (50 mM) was added to the reduced phage solution while gently vortexing to a final volume of 1040 μL to obtain a final concentration of 120 μM bismuth(III). The reaction mixture was vortexed briefly once more and incubated at room temperature for 5 min.
Modification with sodium arsenite (NaAsO2)
Sodium arsenite (NaAsO2) in ultrapure sterile water (50 mM) was added to the reduced phage solution while gently vortexing to a final volume of 1040 μL to obtain a final concentration of 120 μM arsenic(III). The reaction mixture was vortexed briefly once more and incubated at room […]
An overnight culture of Escherichia coli ER2738 (New England Biolabs, E4104, USA), a strain commonly used for phage display, was prepared by growing the bacteria in tetracycline containing LB media at 37 °C for 16 h at 220 rpm. Aliquots of 3 mL of melted top agar were transferred into sterile polystyrene tubes (Corning, 352051, USA) and heated up to 50 °C on a dry bath (Thermo Fisher, 88870004, USA) until ready to use. A dilution series of the phage library was prepared as required, at a final volume of 1 mL, whereby a 10 μL portion of each phage dilution was added to 200 μL of the bacterial overnight culture, incubated for 5 min and transferred fully into a tube containing 3 mL top agar. The contents in the tube were gently mixed by vortexing and poured entirely on a warm LB/IPTG/X-Gal plate, allowing the top agar-mixture to spread evenly across the plate. The plate was allowed to solidify and left in an incubator oven overnight at 37 °C. The number of plaques was counted by selecting plates with plaques separated at a countable level.
The concentration of the original solution was then calculated in pfu/mL using the following equation (Supplementary Equation 1).
Supplementary Equation 1.
concentration of original phage library solution = number of plaques ∙ dilution factor [pfu/mL]
Effect of bicyclisation reagent on phage infectivity
To evaluate the impact of bismuth(III) and arsenic(III) on the infectivity of the naïve three-cysteine phage library, phage titres were measured both before and after the addition of the metal(loid).
Accordingly, for each modification experiment three 1000 μL aliquots of ~1011 pfu/mL of freshly amplified naïve phage library in PBS were set aside and subjected to a plaque-forming assay to determine their titre. Next, these library aliquots were individually exposed to either 120 μM bismuth(III) from BiBr3 (50 mM DMSO) or gastrodenol (50 mM in ultrapure water) or 120 μM arsenic(III) from NaAsO2 (50 mM in ultrapure water), with each reagent being used for the modification of three library aliquots. During addition of the thiophilic element, the reaction mixtures were briefly vortexed and incubated at room temperature for 5 min. Excess reagent was removed from the modified phage library solution using spin desalting columns (Thermo Fisher, 89883, USA) at 2000 × g for 2.5 min. The titre of the modified phage solution was subsequently determined using the plaque-forming assay, which was also performed in triplicate. A parallel experiment was conducted using the addition of PBS as the control. Phage titres before and after their respective modification were plotted in GraphPad Prism 10 (Dotmatics, USA) […]
Supplementary Fig. 20. […]

Structure (SMILES)	effect on phage infectivity	effect on phage infectivity (listed as As(III))
O=C([O-])CC(O)(CC(=O)[O-])C(=O)[O-].O=C([O-])CC(O)(CC(=O)[O-])C(=O)[O-].[Bi+3].[K+].[K+].[K+] [gastrodenol, bismuth tripotassium dicitrate]	no relevant negative effect	–
O=[As][O-].[Na+] [NaAsO2, sodium arsenite]	no relevant negative effect	uncompromised
[Br][Bi]([Br])[Br] [BiBr3, bismuth tribromide]	no relevant negative effect	–
[Bi+3] [Bi(III)]	uncompromised	–
